We go through two molecules from patent US20080181876A1, “Methods for treating acute and subchronic pain” (priority 2007, published 2008).

One assay has as its system Sprague-Dawley (CD) rats. Kind of assay: Rat tail-flick latency test (heat source, 15 second maximum). The assay is classed as in vivo. The following applies: for antinociceptive activity (tail-flick latency), administered alone: single agent: morphine 1.2 mg/kg s.c. or ibudilast 50 mg/kg po. How it is done:
Male Sprague-Dawley (CD) rats were acclimated to a room temperature of 79° F. to semi-confined conditions on a heated glass surface (79° F.). On the first day, rats were acclimated to a glass surface for 20-30 minutes. Rats were in chambers made of plexiglass and could move freely in either direction. No stimulus was given on day 1. On day 2, rats were acclimated for 5 minutes, and a high intensity beam of light was directed at each rat tail approximately 4 cm from the tip. The time it took for a rat tail to withdraw from the heat source was recorded as the baseline latent period for tail flick. Three trials were done with 5 minutes between trials for each rat. The light source was moved for the 2nd and 3rd trials one cm caudal and rostral of the original trial to avoid tissue damage. Animals were dosed orally with ibudilast (50 mg/kg in vehicle (10% HCO60+10% PEG in sterile water) and/or 1.2 mg/kg morphine s.c. formulated in saline for injection. Dose volumes were 1 ml/kg for s.c. administrations (i.e. opioid) and 10 ml/kg for p.o. administrations. Animals were dosed and returned to their cages until 5 minutes before each hourly time point, when they were returned to the glass surface and stimulated with the heat source (3 trials/time point). The ibudilast vehicle was also shown not to have analgesic activity and performed like the saline control. Studies were performed at Avigen Inc. under IACUC regulations.
(Hot-plate and tail-flick tests time the reaction to a heat stimulus.)

For the next assay, the system named is Sprague-Dawley rats. Kind of assay: Modified Hargreaves test (high and low intensity), tail and hindpaw withdrawal to heat stimuli. Format: in vivo, rat. How it is done:
Pathogen-free adult male Sprague-Dawley rats (300-375 g; Harlan Labs, Madison, Wis.) were used in all experiments. Rats were housed in temperature (23±3° C.) and light (12 h: 12 h light:dark cycle; lights on at 0700) controlled rooms with standard rodent chow and water available ad libitum. All procedures were approved by the Institutional Animal Care and Use Committee of the University of Colorado at Boulder. Each study represents an n=6 per group.
Morphine sulfate and oxycodone hydrochloride were purchased from Sigma (St. Louis, Mo., USA). Morphine and oxycodone were administered subcutaneously at 4 mg/kg in a dose volume of 1 ml/kg in sterile injection normal saline. Ibudilast was supplied by Avigen (Alameda, Calif., USA). Ibudilast was administered intraperitoneally at 7.5 mg/kg in a dose volume of 2.5 ml/kg in 35% PEG: 65% injection saline. Morphine and oxycodone doses reported are as free base concentrations.
Hargreaves tests for analgesia and hyperalgesia. Rats received at least three 60 min habituations to the test environment prior to behavioral testing. Thresholds for behavioral response to heat stimuli applied to the plantar surface of each hindpaw and tail were assessed using a modified Hargreaves test (Hargreaves et al., 1988). All testing was conducted blind with respect to group assignment. Briefly, baseline withdrawal values were calculated from an average of 2 consecutive withdrawal latencies of the tail and the left and the right hindpaws, measured at 15-min intervals. Latencies for the high intensity stimulus at baseline ranged from 2 to 3 s, and a cut-off time of 10 s was imposed to avoid tissue damage. Latencies for the low intensity stimulus at baseline ranged from 6 to 7 s, and a cut-off time of 20 s was imposed to avoid tissue damage. The order of paw and tail testing varied randomly.
The analgesic responses were calculated as the % of maximal possible effect
(Carmody, 1995). For high intensity Hargreaves, a cut off of 10 s was used. For low intensity Hargreaves, a 20 s cut off was employed. Since there is no unilateral paw effect expected (or observed) left and right withdrawal latencies were averaged. Statistical significance for analysis of time courses was assessed using a two-way repeated ANOVA with Bonferroni post hoc test and compared the analgesic responses of active treatments versus their vehicle controls. Area under the curves were analyzed with a students t-test. Significance was set at P<0.05. Calculations were conducted with Excel 2003 SP2 (Microsoft, Redmond, Calif., USA) & Prism 4.03 (GraphPad, San Diego, Calif., USA).
Following baseline withdrawal latency assessments (−45 min), animals received ibudilast or vehicle and were tested again 10 min later to determine if ibudilast or vehicle had any effect on withdrawal latencies. At this time (time 0), the animals received a subcutaneous saline injection (1 ml/kg) to control for conditions in Experiment 2 (see below). Animals were then tested every 10 minutes for 80 min alternating high and low intensity Hargreaves tests.
Following baseline withdrawal latency assessments (−45 min), animals received ibudilast or vehicle (−30 min) and were tested again at −10 min. At time 0, animals received a subcutaneous morphine injection (4 mg/kg in a dose volume of 1 ml/kg in injection saline) and were tested every 10 minutes for 230 min alternating high and low intensity Hargreaves tests. […]

“Also recorded” adds a separate entry of the source.

As for `CC(C)C(=O)c1c(C(C)C)nn2ccccc12` [ibudilast, 3-isobutyryl-2-isopropylpyrazolo[1,5-a]pyridine], the “tail-flick latency, co-administration of oral ibudilast and s.c. morphine” value in the assay on Sprague-Dawley (CD) rats (ibudilast 50 mg/kg po + morphine 1.2 mg/kg s.c. concurrently, vs either therapeutic alone) is recorded as “substantial, greater-than-additive increase; also recorded: potentiates morphine-induced analgesia”. In the assay on Sprague-Dawley (CD) rats, the “antinociceptive activity (tail-flick latency), administered alone” value is reported as “weak antinociceptive activity”. The “enhancement of morphine analgesia, tail and paw withdrawal latencies” value with Sprague-Dawley rats (ibudilast 7.5 mg/kg i.p. 30 min prior to morphine 4 mg/kg s.c., high and low intensity Hargreaves, vs vehicle + morphine) is on record as “significantly enhanced; also recorded: potentiated analgesia”. Also, the “enhancement of oxycodone analgesia, tail and paw withdrawal latencies” value with Sprague-Dawley rats (ibudilast 7.5 mg/kg i.p. 30 min prior to oxycodone 4 mg/kg s.c., high and low intensity Hargreaves, vs vehicle + oxycodone) is “significantly enhanced; also recorded: potentiated analgesia”. For the same molecule, in the assay on Sprague-Dawley rats (ibudilast 7.5 mg/kg i.p. + morphine 4 mg/kg s.c., tail and hind paw, vs vehicle + morphine), the “area under the analgesia curve, co-administration with morphine” value is reported as “significant increase in analgesia”. Moreover, the “area under the analgesia curve, co-administration with oxycodone” value with Sprague-Dawley rats (ibudilast 7.5 mg/kg i.p. + oxycodone 4 mg/kg s.c., tail and hind paw, vs vehicle + oxycodone) is listed as “significant increase in analgesia”. Besides, the “tail and paw withdrawal latencies (% maximal possible effect), ibudilast alone” value in the assay on Sprague-Dawley rats (ibudilast 7.5 mg/kg i.p. alone (followed by s.c. saline), high and low intensity Hargreaves, vs vehicle 35% PEG) is reported as “no significant influence; also recorded: little to no effect”.
`CN1CC[C@]23c4c5ccc(O)c4O[C@H]2[C@@H](O)C=C[C@H]3[C@H]1C5` [morphine]: in the assay on Sprague-Dawley (CD) rats, the “antinociceptive activity (tail-flick latency), administered alone” value is on record as “weak antinociceptive activity”.
